Values after ≈ are worked out from the molar mass of the structure shown.
Legend:
[1] = test system: Enterococcus faecalis ATCC 29212; assay: Serial dilution microplate MIC; type: cell-based; settings: Table 2
Description: (§1) The MIC value of the plant extracts and isolated compounds against one fungal and five bacterial strains (Salmonella Typhimurium ATCC 39183, Escherichia coli ATCC 25922, Pseudomonas aeruginosa ATCC 27853, Staphylococcus aureus ATCC 29213, Enterococcus faecalis ATCC 29212, and fungi culture, Candida albicans ATCC 10231) was assessed in triplicate using the serial dilution microplate method; acetone and DMSO were used as solvents. Bacterial cultures were grown in Mueller Hinton broth (Sigma Aldrich, St. Louis, MO, USA) overnight and adjusted to McFarland standard 1 (1 × 10^8 CFU/mL). Then, 100 µL of samples were transferred into the first well of a sterile 96-well microtiter plate, which contained 100 µL of water and a 1:1 serial dilution with sterilized distilled water was carried out. In each well, 100 µL of appropriately adjusted fungal or bacterial cultures were added, and the bacteria were subjected to final concentrations of 250–3.9 μg/mL for pure compounds and 2.5–0.02 mg/mL for crude extracts. Amphotericin-B and Gentamicin (Virbac, Carros, France) served as positive controls for fungi and bacteria, respectively. For sterility, water served as control, while acetone served as a negative control. The microplates were then incubated for 24 h at 37 °C. Following incubation, 40 µL of 0.2 mg/mL p-iodonitrotetrazolium violet (INT, Sigma Aldrich) dissolved in water (hot) was added to the wells before being incubated at 37 °C for another 2 h. In the case of fungi, the INT was added before incubation. The MIC was measured visually as the lowest concentration of the compounds/extracts that inhibited proliferation.

[2] = test system: Escherichia coli ATCC 25922; assay: Serial dilution microplate MIC; type: cell-based; settings: Table 2
Description: as §1

[3] = test system: Pseudomonas aeruginosa ATCC 27853; assay: Serial dilution microplate MIC; type: cell-based; settings: Table 2
Description: as §1

[4] = test system: Salmonella Typhimurium ATCC 39183; assay: Serial dilution microplate MIC; type: cell-based; settings: Table 2
Description: as §1

[5] = test system: Staphylococcus aureus ATCC 29213; assay: Serial dilution microplate MIC; type: cell-based; settings: Table 2
Description: as §1

[6] = test system: Candida albicans ATCC 10231; assay: Serial dilution microplate MIC (fungi); type: cell-based; settings: Table 2
Description: as §1

in vitro = settings: monkey, LC50
Description: Cytotoxicity of compounds and extracts was tested against mammalian cells using the MTT assay. MCF-7 cancer cells were grown in a 5% CO2 incubator in Dulbecco’s Modified Eagle’s Medium (DMEM, Highveld Biological, Johannesburg, South Africa) supplemented with 10% fetal calf serum (Adcock-Ingram, Johannesburg, South Africa) and 1% penicillin-streptomycin (10,000 U/mL and 10 mg/mL streptomycin, Sigma Aldrich). In a 5% CO2 incubator, Vero cells were grown in a minimal essential medium (MEM, Highveld Biological, South Africa) supplemented with 5% fetal calf serum (Adcock-Ingram) and 0.1% gentamicin (Virbac). Cell suspensions were obtained from 70–80% confluent monolayer cultures and were plated in 96-well cell culture plates at a density of 1 × 10^4. Plates were incubated in a 5% CO2 incubator for 24 h at 37 °C. The cells were exposed to the extracts or compounds dissolved in the media at different concentrations for 48 h. Positive and negative controls were doxorubicin (Pfizer, New York, NYC, USA) and acetone or DMSO, respectively. After that, the wells were rinsed with phosphate-buffered saline (PBS, Sigma) and 200 µL of fresh medium was poured into the wells. Thirty microlitres (5 mg/mL) of MTT (Sigma) dissolved in PBS was added to each well, and the plates were incubated at 37 °C for 4 h. The medium from the wells was removed, rinsed, and 50 µL of 100% DMSO was added to the wells. At a wavelength of 570 nm, absorbance was measured using a microplate reader (BioTek Synergy, Beijing, China). Each sample concentration was tested in quadruplicate in two repeats (n = 8), and the concentration causing 50% inhibition of cell viability (LC50) was calculated. Selectivity index (SI) values for the extracts/compounds were obtained by dividing cytotoxicity LC50 values of normal (Vero) cells by those of the cancer cells.

Bacillus subtilis = test system: Bacillus subtilis; parameters: method as in ref 36 = [36]; 36. Koay Y.C. Wong K.C. Hasnah O. Ibrahim E.M.S. Mohammad Z.A. Chemical constituents and biological activities of Strobilanthes crispus L. Rec. Nat. Prod. 2013 7 59 64; settings: cited from earlier work
[7] = test system: Aspergillus niger, Aspergillus flavus, Rhizoctonia phaseoli, and Penicillium chrysogenum; parameters: method as in ref 38 = [38]; 38. ur Rahman U. Durrani S. Ubaidullah S.A. ur Rahman S. Anti-pyretic activity of taraxerol acetate KJMS 2016 9 165; settings: 1 mg/disc; cited from earlier work
T. rubrum = test system: T. rubrum; parameters: method as in PMID 19844829, PMID 35453556; settings: cited from earlier work
T. mentagrophytes = test system: T. mentagrophytes; parameters: method as in PMID 19844829, PMID 35453556; settings: cited from earlier work
Candida albicans = test system: Candida albicans; parameters: method as in PMID 19844829, PMID 35453556; settings: cited from earlier work
Aspergillus niger = test system: Aspergillus niger; parameters: method as in PMID 19844829, PMID 35453556; settings: cited from earlier work
[8] = test system: A431 squamous carcinoma cell line; parameters: method as in PMID 35453556, PMID 21294076; settings: cited from earlier work
HeLa = test system: HeLa; parameters: method as in PMID 35453556, PMID 21294076; settings: cited from earlier work
MRC-5 = test system: MRC-5; parameters: method as in PMID 35453556, PMID 21294076; settings: cited from earlier work

SMILES: CC1(C)CC[C@]2(C)CC=C3[C@]4(C)CC[C@H]5C(C)(C)[C@@H](O)CC[C@]5(C)[C@H]4CC[C@@]3(C)[C@@H]2C1 [Compound 3β-Taraxerol, 3β-taraxerol]
- MIC ([1]; Enterococcus faecalis, ATCC29212, isolated compounds, read-out: Minimum inhibitory concentration (MIC) E. faecalis): > 250 µg/mL
- Selectivity index E. faecalis ([1]; in brackets, Vero LC50 vs MIC): < 0.8
- MIC ([2]; Escherichia coli, ATCC25922, isolated compounds, read-out: Minimum inhibitory concentration (MIC) E. coli): 250 µg/mL (≈ 586 µM)
- Selectivity index E. coli ([2]; in brackets, Vero LC50 vs MIC): > 0.8
- MIC ([3]; Pseudomonas aeruginosa, ATCC27853, isolated compounds, read-out: Minimum inhibitory concentration (MIC) P. aeruginosa): > 250 µg/mL
- Selectivity index P. aeruginosa ([3]; in brackets, Vero LC50 vs MIC): < 0.8
- MIC ([4]; Salmonella enterica, isolated compounds, read-out: Minimum inhibitory concentration (MIC) S. Typhimurium): 250 µg/mL (≈ 586 µM)
- Selectivity index S. Typhimurium ([4]; in brackets, Vero LC50 vs MIC): > 0.8
- MIC ([5]; Staphylococcus aureus, ATCC29213, isolated compounds, read-out: Minimum inhibitory concentration (MIC) S. aureus): 250 µg/mL (≈ 586 µM)
- Selectivity index S. aureus ([5]; in brackets, Vero LC50 vs MIC): > 0.8
- MIC ([6]; Candida albicans, ATCC10231, isolated compounds, read-out: Minimum inhibitory concentration (MIC) C. albicans): 250 µg/mL (≈ 586 µM)
- Selectivity index C. albicans ([6]; in brackets, Vero LC50 vs MIC): > 0.8
- CC50 at 48 h (in vitro): > 200 µg/mL
- MIC Bacillus subtilis (Bacillus subtilis): 15.6 µg/mL (≈ 36.6 µM)
- Anti-fungal activity against four fungi [7]: weak anti-fungal activities
- MIC T. rubrum (T. rubrum): 12.5 µg/mL (≈ 29.3 µM)
- MIC T. mentagrophytes (T. mentagrophytes): 12.5 µg/mL (≈ 29.3 µM)
- MIC Candida albicans (Candida albicans): 25 µg/mL (≈ 58.6 µM)
- MIC Aspergillus niger (Aspergillus niger): 100 µg/mL (≈ 234 µM)
- Cytotoxicity A431 [8]: 2.65 µg/mL
- Cytotoxicity HeLa (HeLa): inactive
- Cytotoxicity MRC-5 (MRC-5): inactive

From article PMC10574767, “Extractives from Artemisia afra with Anti-Bacterial and Anti-Fungal Properties” (Plants, 2023)
